Experimental data: US20030134824A1, “Beta-cyclodextrin dimers and phthalocyanines and uses thereof” (priority 2001, published 2003)

Tests used:
[1] = Photochemical cleavage of the dimers by bound phthalocyanines, monitored by 1H NMR; type: physicochemical; conditions: dimer 2.5 mM, photosensitizer 0.14 mM, 5% DMSO-d6 in D2O, O2, light >540 nm, 25° C.
Procedure: All of the photocleavage reactions were carried out using the same apparatus, as described previously (U.S. Ser. No. 09/352,529, filed Jul. 13, 1999, now allowed; Ruebner et al. 1999). A halogen lamp (50 W) was set up with a 540 nm cut-off filter and a focusing lens. The NMR tube in which the reactions were run was placed in the most strongly focused area, and oxygen was bubbled continuously through the solution while the photocleavage reactions were run. To monitor the reactions, ^1H NMR's were taken at regular intervals, whereby the disappearance of the alkene peaks and the appearance of the single formyl peak could be observed.
The dimers were at a concentration of 2.5 mM while the photosensitizers were at 0.14 mM in 5% DMSO-d6 in D2O. Here dimer 21 was cleaved using phthalocyanine 11. It can clearly be seen that the amount of alkene (doublet at ˜6.2 ppm) decreases and the formyl peak (singlet at ˜8.4 ppm) appears as the reaction progresses, and that no other peaks are seen in this area. […]
To a solution of β-cyclodextrin dimer 17 (5.9 mg, 2.35×10^−6 mol) and potassium carbonate (2 mg) in D2O (1.00 mL) was added a 3 mM solution of phthalocyanine 6 (0.17 mg, 1.50×10^−7 mol) in DMSO-d6 (50 μL). […] The reaction was monitored by ^1H NMR, by observance of the disappearance of the alkene peaks and the appearance of the formyl peak. […]

[2] = Binding of BNS to β-cyclodextrin dimers by fluorescence titration; conditions: water, ca. 25° C.
Procedure: Binding constants for a few of the possible pairs were determined by a fluorescence competition method previously used for cyclodextrin dimers, competing the substrate of interest with 2-(p-tert-butylanilino)naphthalene-6-sulfonic acid 22, (termed BNS, Breslow et al. 1989). [drawing 26]
BNS is fluorescent when bound into a hydrophobic cavity such as that of a cyclodextrin, but only weakly fluorescent in water solution. Only the sulfonated phthalocyanines were soluble enough for this method.
The binding constant of BNS 22 to each dimer was determined as previously (Breslow et al. 1989, Ruebner et al. 1999) by titrating BNS into a dimer solution in a fluorescence cell, then exciting this solution at 330 nm and measuring the fluorescent emission at 438 nm. The binding constant of phthalocyanine to dimer was measured by titration of BNS into a 1:1 mixture of dimer and phthalocyanine. […] The binding constant of BNS to each dimer is given by K=intercept/slope, and the binding constant of the phthalocyanine can be calculated as KI=(K/K′−1)/[I], where K′ is the apparent binding constant of BNS to the dimer in presence of phthalocyanine, and [I] is the concentration of phthalocyanine (Ruebner et al. 1996). […]
The binding constant for BNS to cyclodextrin dimer 21 was determined by the fluorescence emission method. […] The area under the peak between 400 and 500 nm was measured for each addition. […]

[3] = Microcalorimetric titration with p-tert-butylbenzoic acid; type: binding
Procedure: β-cyclodextrin (CD) monomer 23 (6.4 mg, 0.005 mmol) was dissolved in 0.20 M pH 9.0 Na2CO3/NaHCO3 buffer (5.00 mL) to make a 1.0 mM solution. p-tert-Butylbenzoic acid (11.0 mg, 0.062 mmol) was dissolved in 6.16 mL of the same buffer to make a 10.0 mM solution. Both solutions were degassed under reduced pressure with a sonicator for 5 minutes immediately prior to the binding study. The β-CD monomer 23 solution (2.50 mL) was put into the sample cell compartment of an Omega microcalorimeter, whereas the p-tert-butyl-benzoic acid was loaded in a 250 μL syringe and then assembled onto the calorimeter. The system was equilibrated until RMS error was less than 5×10^−3 with the syringe spinning at 400 rpm. The p-tert-butylbenzoic acid solution was then injected into the cell in 25 injections (10 μL, 7 seconds per injection). […] Injection data were automatically collected by the computer, and the data was analyzed by ORIGIN software with the single-binding-site model. […]
β-Cyclodextrin (4.0 mg, 0.0035 mmol) was dissolved in 0.20 M pH 9.0 Na2CO3/NaHCO3 buffer (3.53 mL) to make a 1.0 mM solution. p-tert-butyl-benzoic acid (10.0 mg, 0.056 mmol) was dissolved in 5.60 mL of the same buffer to make a 10.0 mM solution. […] Injection data were automatically collected by the computer, and the data was analyzed by ORIGIN software with the single-binding-site model. […]

Row | binding constant of BNS to the dimer [2] [M⁻¹] | binding constant with 4-tert-butylbenzoic acid [3] | SMILES | time for 50% cleavage of the dimer by phthalocyanine 6 [1] [min] | time for 50% cleavage of the dimer by phthalocyanine 14 [1] [min]
1 | 418000 | – | CNC(=O)CCCS/C=C\SCCCC(=O)NC [Dimer 18] | 55 | 6
2 | – | 1.7×10^4 M^− | OC[C@H]1O[C@@H]2O[C@H]3[C@H](O)[C@@H](O)[C@@H](O[C@H]4[C@H](O)[C@@H](O)[C@@H](O[C@H]5[C@H](O)[C@@H](O)[C@@H](O[C@H]6[C@H](O)[C@@H](O)[C@@H](O[C@H]7[C@H](O)[C@@H](O)[C@@H](O[C@H]8[C@H](O)[C@@H](O)[C@@H](O[C@H]1[C@H](O)[C@H]2O)O[C@@H]8CO)O[C@@H]7CO)O[C@@H]6CO)O[C@@H]5CO)O[C@@H]4CO)O[C@@H]3CO [β-cyclodextrin] | – | –
